Experimental data: patent US6114517A, “Methods of modulating tumor necrosis factor α-induced expression of cell adhesion molecules” (Isis Pharmaceuticals Inc., priority 1998, dated 2000)

Legend:
Format in all cases: cell-based, human
[1] = test system: E-selectin; assay: TNF-α-induced E-selectin cell surface expression in HMVEC, flow cytometry
Procedure: (§1) Human dermal microvascular cells (HMVEC-d; Clonetics, San Diego, Calif.) were cultivated in endothelial basal media (EBM, Clonetics) supplemented with 10% fetal bovine serum (HyClone, Logan, Utah). Cells were grown in 100 mm petri dishes until 70-80% confluent, then washed with PBS and OPTI-MEM (Life Technologies, Inc., Gaithersburg, Md.). The cells were then incubated in the presence of OPTI-MEM and […] LIPOFECTIN (a 1:1 (w/w) liposome formulation of the cationic lipid N-[1-(2,3-dioleyloxy)propyl]-n,n,n-trimethylammonium chloride (DOTMA), and dioleoyl phosphotidylethanolamine (DOPE) in membrane filtered water (Life Technologies, Gaithersburg, Md.), per 100 nM of oligonucleotide followed by addition of oligonucleotide at the appropriate concentrations.
(§2) The effect of c-raf and Ha-ras antisense oligonucleotide treatment on the induction of E-selectin by TNF-α was examined. HMVEC cells were treated with either the c-raf or Ha-ras antisense compound under dose-response conditions or over time at a single dose level followed by stimulation of E-selectin expression by TNF-α for 5 hours. The cell surface expression of E-selectin was determined by flow cytometry analysis. Following oligonucleotide treatment, cells were detached from the plates and analyzed for surface expression of cell adhesion molecules using a Becton Dickinson (San Jose, Calif.) FACScan. TNF-α and FITC conjugated antibody for E-selectin were obtained from R & D Systems (Minneapolis, Minn.). PE-conjugated antibody for ICAM-1 was obtained from Pharmingen (San Diego, Calif.). VCAM-1 antibody was obtained from Santa Cruz Biotechnology, Santa Cruz, Calif. Cell surface expression was calculated using the mean value of fluorescence intensity using 3,000-5,000 cells stained with the appropriate antibody for each sample and time point. Results are expressed as percentage of control (cell surface expression induced by TNF-α in cells that were not treated with oligonucleotides) based upon mean fluorescence intensity.
The effects of c-raf, Ha-ras, and a E-selectin antisense oligonucleotide on TNF-α-induced E-selectin cell surface expression under kinetic conditions were examined. […] To test this, cells were treated, separately, with antisense oligonucleotides to E-selectin, ICAM-1 and VCAM-1 and allowed to recover prior to TNF-α treatment. […] E-selectin cell surface expression was measured by flow cytometry analysis after 5 hours of TNF-A treatment.

[2] = test system: JNK1 mRNA; assay: JNK1 mRNA expression by Northern blot; conditions: at the concentration tested, FIG. 4
Procedure: as §1
(§3) For determination of mRNA levels by Northern blot, total RNA was prepared from cells by the guanidinium isothiocyanate procedure or by the Qiagen RNAEASY method (Qiagen, Santa Clarita, Calif.) at the indicated times after initiation of oligonucleotide treatment. Northern blot analysis was performed as described in Current Protocols in Molecular Biology (Ausubel, F. M., et al., (eds), 1987, Greene Publishing Assoc. and Wiley Interscience, New York). […] RNA was quantified and normalized to G3PDH mRNA levels using a Molecular Dynamic PHOSPHORIMAGER (Sunnyvale, Calif.). […]

[3] = test system: JNK2 mRNA; assay: JNK2 mRNA expression by Northern blot; conditions: at the concentration tested, FIG. 4
Procedure: as §1, §3

[4] = test system: JNK2; assay: TNF-α-mediated JNK2 kinase activity, isoform-specific JNK assay; conditions: FIG. 5
Procedure: (§4) To examine the effect of the c-raf antisense oligonucleotide (ISIS 12854, SEQ ID NO. 2) on ERK, JNK, and p38 MAPK activities stimulated by TNF-α, in vitro kinase assays were performed on extracts derived from cells treated with ISIS 12854 (SEQ ID NO. 2). Cells were treated with oligonucleotides and induced with cytokines. At the indicated time, cells were lysed on ice and debris was removed by centrifugation. Protein concentration was measured by Bradford assay. Lysate containing equal amounts of protein were incubated with primary antibody-agarose conjugates (ERK and p38 assay; Santa Cruz Biotechnology, Santa Cruz, Calif.), or with JNK1-specific or JNK2-specific antibodies (JNK assay; Upstate Biotechnology, Lake Placid, N.Y.), overnight at 4° C.
(§5) For isoform-specific JNK assays, anti-rabbit IgG conjugated with agarose beads was added to cell extracts following JNK antibody treatment and wash steps and incubated for 2 hours at 4° C. After washing with lysis buffer and kinase buffer, the pelleted beads were incubated with 1 μg of substrate (Elk-1 for ERK, ATF-2 for p38, and c-Jun for JNK MAPK) and 100 […] of ATP for 20 minutes at 37° C. MAPK and JNK assay kits, ATF-2 fusion protein, and antibodies for ATF-2, Elk-1 phospho-ATF-2 were purchased from New England BioLabs (Boston, Mass.). Reactions were terminated by the addition of 3×SDS sample buffer followed by boiling. […]

[5] = test system: JNK1; assay: TNF-α-mediated JNK1 kinase activity, isoform-specific JNK assay; conditions: FIG. 5
Procedure: as §4, §5

[6] = test system: c-raf mRNA; assay: c-raf mRNA levels by Northern blot in HMVEC
Procedure: as §1
(§6) For determination of mRNA levels by Northern blot, total RNA was prepared from cells by the guanidinium isothiocyanate procedure or by the Qiagen RNAEASY method (Qiagen, Santa Clarita, Calif.) at the indicated times after initiation of oligonucleotide treatment. Northern blot analysis was performed as described in Current Protocols in Molecular Biology (Ausubel, F. M., et al., (eds), 1987, Greene Publishing Assoc. and Wiley Interscience, New York). A glyceraldehyde 3-phosphate dehydrogenase (G3PDH) probe was purchased from Clontech (Palo Alto, Calif., Catalog Number 9805-1). RNA was quantified and normalized to G3PDH mRNA levels using a Molecular Dynamic PHOSPHORIMAGER (Sunnyvale, Calif.).
ISIS 12854 (SEQ ID NO. 2) is a 2'-O-methoxyethyl mixed backbone chimeric antisense oligonucleotide designed to hybridize with 3'-untranslated sequences contained within human c-raf mRNA. To determine whether this antisense oligonucleotide is effective as a c-raf inhibitor in endothelial cells, human dermal microvascular cells (HMVEC) were treated with ISIS 12854 (SEQ ID NO. 2) as described in Example 2. C-raf mRNA and protein expression was examined by northern and Western blot analysis. The c-raf cDNA probe was generated from the plasmid, p627 (American Type Culture Collection, Manassas, Va.; catalog #41050), following the supplied instructions. The c-raf antibody was obtained from Transduction Laboratories, Inc. (Lexington, Ky.).

[7] = test system: ICAM-1; assay: TNF-α-induced ICAM-1 cell surface expression in HMVEC, flow cytometry
Procedure: as §1
as §2, with “intensity. Basal expression of E-selectin and VCAM-1 is undetectable in the absence of TNF-α whereas a low level of basal expression is detectable for ICAM-1.” for “intensity.”
(§7) TNF-α induction of ICAM-1 and VCAM-1 in cells treated with c-raf and Ha-ras antisense oligonucleotides was also examined to further define the roles of c-raf and Ha-ras in cytokine signaling. Oligonucleotides were tested, using flow cytometry analysis, as described in Example 4. Results are shown in Table 6 (ICAM-1) and Table 7 (VCAM-1).

[8] = test system: VCAM-1; assay: TNF-α-induced VCAM-1 cell surface expression in HMVEC, flow cytometry
Procedure: as §1
as §2, with “intensity. Basal expression of E-selectin and VCAM-1 is undetectable in the absence of TNF-α whereas a low level of basal expression is detectable for ICAM-1.” for “intensity.”
as §7

[9] = test system: E-selectin mRNA; assay: TNF-α-induced E-selectin mRNA, Northern blot; conditions: 48 hrs recovery, TNF-α two to three hours before RNA analysis
Procedure: as §6
(§8) Northern blot analysis was carried out to examine whether c-raf and Ha-ras antisense oligonucleotides inhibit the induction of cell adhesion molecules at the transcriptional level. Cells were treated with c-raf (ISIS 12854, SEQ ID NO. 2) or Ha-ras (ISIS 15168, SEQ ID NO. 4) antisense oligonucleotides and allowed to recover for 48 hrs. TNF-α was added two to three hours prior to RNA analysis and Northern blotting was performed with probes specific for E-selectin, ICAM-1, and VCAM-1. The probe for E-selectin was obtained by PCR amplification using primers directed to HUMELAM1A (Genbank Accession No. M24736; SEQ ID NO. 18).

[10] = test system: ICAM-1 mRNA; assay: TNF-α-induced ICAM-1 mRNA, Northern blot; conditions: 48 hrs recovery, TNF-α two to three hours before RNA analysis
Procedure: as §6, §8

[11] = test system: VCAM-1 mRNA; assay: TNF-α-induced VCAM-1 mRNA, Northern blot; conditions: 48 hrs recovery, TNF-α two to three hours before RNA analysis
Procedure: as §6, §8

[12] = Table 9, JNK antisense series, 20 nM
[13] = Table 9, JNK antisense series, 50 nM
[14] = Table 9, JNK antisense series, 100 nM
[15] = time course, 12 h/20 h after oligonucleotide treatment, TNF-α 5 hours
[16] = time course, 48 h after oligonucleotide treatment, TNF-α 5 hours
[17] = time course, 72 h after oligonucleotide treatment, TNF-α 5 hours

Substance: GoToCoCoGoGsGsCsCsAsGsGsCsCsAsAoAoGoToC [ISIS 15354]
- % Cell Surface Expression (E-selectin) [1, 12]: 32%
- % Cell Surface Inhibition (E-selectin) [1, 12]: 68%
- % Cell Surface Expression (E-selectin) [1, 13]: 29%
- % Cell Surface Inhibition (E-selectin) [1, 13]: 71%
- % Cell Surface Expression (E-selectin) [1, 14]: 33%
- % Cell Surface Inhibition (E-selectin) [1, 14]: 67%
- JNK1 mRNA expression [2]: without affecting
- JNK2 mRNA expression [3]: nearly complete inhibition
- TNF-α-mediated induction of JNK2 activity [4]: effectively reduced

Substance: CoToCoToCoTsGsTsAsGsGsCsCsCsGsCoToToGoG [ISIS 15347]
- % Cell Surface Expression (E-selectin) [1, 12]: 89%
- % Cell Surface Inhibition (E-selectin) [1, 12]: 11%
- % Cell Surface Expression (E-selectin) [1, 13]: 84%
- % Cell Surface Inhibition (E-selectin) [1, 13]: 16%
- % Cell Surface Expression (E-selectin) [1, 14]: 82%
- % Cell Surface Inhibition (E-selectin) [1, 14]: 18%
- JNK1 mRNA expression [2]: nearly complete inhibition
- TNF-α-mediated induction of JNK1 activity [5]: effectively reduced

Substance: AoToGoCoAoTsTsCsTsGsCsCsCsCsCoAoAoGoGoA [ISIS 15727, reference compound]
- effect on c-raf mRNA [6]: did not exhibit any effect
- % mRNA Expression (c-raf) ([6]; 100 nM): 96%
- % mRNA Inhibition (c-raf) ([6]; 100 nM): 4%
- % mRNA Expression (c-raf) ([6]; 200 nM): 135%
- % Cell Surface Expression (E-selectin) ([1]; 25 nM, TNF-α for 5 hours, % of control): 119%
- % Cell Surface Inhibition (E-selectin) ([1]; 75 nM, TNF-α for 5 hours): 6%
- % Cell Surface Expression (E-selectin) ([1]; 75 nM, TNF-α for 5 hours, % of control): 94%
- % Cell Surface Expression (E-selectin) ([1]; 150 nM, TNF-α for 5 hours, % of control): 106%
- % Cell Surface Expression (E-selectin) [1, 12]: 137%
- % Cell Surface Expression (E-selectin) [1, 13]: 128%
- % Cell Surface Expression (E-selectin) [1, 14]: 124%
- effect on E-selectin induction ([1]; dose response, HMVEC): little to no effect
- % Cell Surface Expression (E-selectin) [1, 15]: 93%
- % Cell Surface Inhibition (E-selectin) [1, 15]: 7%
- % Cell Surface Expression (E-selectin) [1, 16]: 106%
- % Cell Surface Expression (E-selectin) [1, 17]: 81%
- % Cell Surface Inhibition (E-selectin) [1, 17]: 19%
- % Cell Surface Expression (ICAM-1) ([7]; 20 nM): 97%
- % Cell Surface Inhibition (ICAM-1) ([7]; 20 nM): 3%
- % Cell Surface Expression (ICAM-1) ([7]; 50 nM): 89%
- % Cell Surface Inhibition (ICAM-1) ([7]; 50 nM): 11%
- % Cell Surface Expression (ICAM-1) ([7]; 100 nM): 87%
- % Cell Surface Inhibition (ICAM-1) ([7]; 100 nM): 13%
- % Cell Surface Expression (VCAM-1) ([8]; 20 nM): 69%
- % Cell Surface Inhibition (VCAM-1) ([8]; 20 nM): 31%
- % Cell Surface Expression (VCAM-1) ([8]; 50 nM): 81%
- % Cell Surface Inhibition (VCAM-1) ([8]; 50 nM): 19%
- % Cell Surface Expression (VCAM-1) ([8]; 100 nM): 74%
- % Cell Surface Inhibition (VCAM-1) ([8]; 100 nM): 26%
- % mRNA Expression (E-selectin) [9]: 103%
- % mRNA Expression (ICAM-1) [10]: 107%
- % mRNA Expression (VCAM-1) [11]: 113%

Substance: GsAsAsGsTsCsAsGsCsCsAsAsGsAsAsCsAsGsCsT (GAAGTCAGCCAAGAACAGCT; all phosphorothioate, sugars by position and methylation of C not given here) [ISIS 11928, fully phosphorothioated oligonucleotide with all 2'-methoxyethoxy nucleotides except a 3' terminal 2'-deoxy nucleotide, antisense to E-selectin]
- block of E-selectin cell surface expression ([1]; concentrations as low as 20 nM, 12 hours following treatment): 80%
- % Cell Surface Expression (E-selectin) [1, 15]: 22%
- % Cell Surface Inhibition (E-selectin) [1, 15]: 78%
- % Cell Surface Expression (E-selectin) [1, 16]: 29%
- % Cell Surface Inhibition (E-selectin) [1, 16]: 71%
- % Cell Surface Expression (E-selectin) [1, 17]: 32%
- % Cell Surface Inhibition (E-selectin) [1, 17]: 68%
